Calls of active or inactive are those of the source. The calls are words filed in the database; no cut-off is given here.
Experiments:
[1] = Half life in Sprague-Dawley rat at 10 mg/kg, ip measured upto 24 hrs by LC-MS/MS analysis; type: ADME, organism-based; conditions: in vivo
SK-HEP1 [2] = assay: Inhibition of cell migration in human SK-HEP1 cells at 20 nM measured for 24 hrs by scratch wound healing assay; type: functional, cell-based
Huh-7 [3] = assay: Induction of cell cycle arrest in human Huh-7 cells assessed as accumulation of cells at G2 phase 20 nM measured after 24 hrs by flow cytometric assay (reference value: 13.66%); type: functional
[4] = Aqueous solubility of the compound […] measured after 72 hrs in shaking by HPLC analysis; type: physicochemical
SK-HEP1 [5] = assay: Induction of apoptosis in human SK-HEP1 cells assessed as late apoptotic cells at 40 nM measured after 24 hrs by Annexin-V-FITC/PI analysis (reference value: 0.64%); type: functional
Huh-7 [6] = assay: Induction of apoptosis in human Huh-7 cells assessed as viable cells at 80 nM measured after 24 hrs by Annexin-V-FITC/PI analysis (reference value: 97.46%); type: functional; conditions: read-out: Activity
Huh-7 [7] = assay: Induction of apoptosis in human Huh-7 cells assessed as loss of mitochondrial membrane potential by measuring JC-1 stained cells at 20 nM measured after 24 hrs by JC-1 staining based flow cytometry (reference value: 2.27%); type: functional
SK-HEP1 [8] = assay: Induction of apoptosis in human SK-HEP1 cells assessed as loss of mitochondrial membrane potential by measuring JC-1 stained cells at 80 nM measured after 24 hrs by JC-1 staining based flow cytometry (reference value: 0.49%); type: functional
SK-HEP1 [9] = assay: Induction of apoptosis in human SK-HEP1 cells assessed as late apoptotic cells at 80 nM measured after 24 hrs by Annexin-V-FITC/PI analysis (reference value: 0.64%); type: functional
Huh-7 [10] = assay: Antiproliferative activity against human Huh-7 cells assessed as inhibition of colony formation at 10 to 40 nM measured 1 to 2 weeks by human tumor clonogenic assays (HTCA); type: functional, cell-based; conditions: dose 10-40 nM, time 1-2 weeks
SK-HEP1 [11] = assay: Induction of apoptosis in human SK-HEP1 cells assessed as viable cells at 20 nM measured after 24 hrs by Annexin-V-FITC/PI analysis (reference value: 97.20%); type: functional; conditions: read-out: Activity
[12] = Toxicity in BALB/c nude mouse subcutaneously injected with human Huh-7 cells assessed as changes in spleen tissue at 10 mg/kg, ip administered once daily measured after 14 days by H and E staining based assay; type: organism-based; conditions: in vivo, 336 h, time 14 day
Huh-7 [13] = assay: Induction of apoptosis in human Huh-7 cells assessed as ROS generation by measuring DCFH2-DA stained cells at 20 nM measured after 24 hrs […] (reference value: 0.45%); type: functional
SK-HEP1 [14] = assay: Inhibition of cell invasion in human SK-HEP1 cells assessed as decrease in number of cells migration into lower compartment at 40 nM measured after 24 hrs by transwell assay; type: functional, cell-based
SK-HEP1 [15] = assay: Induction of cell cycle arrest in human SK-HEP1 cells assessed as accumulation of cells at G1 phase 20 nM measured after 24 hrs by flow cytometric assay (reference value: 47.55%); type: functional
SK-HEP1 [16] = assay: Induction of cell cycle arrest in human SK-HEP1 cells assessed as accumulation of cells at G2 phase 40 nM measured after 24 hrs by flow cytometric assay (reference value: 22.41%); type: functional
Huh-7 [17] = assay: Induction of cell cycle arrest in human Huh-7 cells assessed as accumulation of cells at G1 phase 40 nM measured after 24 hrs by flow cytometric assay (reference value: 63.01%); type: functional
SMMC-7721 = assay: Antiproliferative activity against human SMMC-7721 cells assessed as inhibition of cell proliferation incubated for 72 hrs by MTT assay; type: functional, cell-based; conditions: SMMC-7721, 72 h
SK-HEP1 [18] = assay: Induction of cell cycle arrest in human SK-HEP1 cells assessed as accumulation of cells at G1 phase 80 nM measured after 24 hrs by flow cytometric assay (reference value: 47.55%); type: functional
[19] = Drug resistance index, ratio of IC50 for antiproliferative activity against human SMMC-7721 cells to antiproliferative activity against human Doxorubicin-resistant SMMC-7721 cells; type: functional
Huh-7 [20] = assay: Induction of apoptosis in human Huh-7 cells assessed as necrotic cells at 40 nM measured after 24 hrs by Annexin-V-FITC/PI analysis (reference value: 0.27%); type: functional
SK-HEP1 [21] = assay: Induction of apoptosis in human SK-HEP1 cells assessed as necrotic cells at 80 nM measured after 24 hrs by Annexin-V-FITC/PI analysis (reference value: 0.70%); type: functional
SK-HEP1 [22] = assay: Inhibition of cell invasion in human SK-HEP1 cells assessed as decrease in number of cells migration into lower compartment at 20 nM measured after 24 hrs by transwell assay; type: functional, cell-based
[23] = Toxicity in BALB/c nude mouse subcutaneously injected with human Huh-7 cells assessed as change in red blood cells at 10 mg/kg, ip administered once daily measured after 14 days; type: organism-based; conditions: in vivo, 336 h, time 14 day
[24] = Chemical stability of compound at pH 4.6 assessed as residual rate measured after 2 days; type: physicochemical; conditions: buffer, time 2 day, read-out: Stability
SK-HEP1 [25] = assay: Induction of apoptosis in human SK-HEP1 cells assessed as early apoptotic cells at 20 nM measured after 24 hrs by Annexin-V-FITC/PI analysis (reference value: 1.45%); type: functional
[26] = Toxicity in BALB/c nude mouse subcutaneously injected with human Huh-7 cells assessed as change in body weight at 40 mg/kg, ip administered once other day measured after 14 days; type: organism-based; conditions: in vivo, 336 h, time 14 day
HepG2 = assay: Antiproliferative activity against human HepG2 cells assessed as inhibition of cell proliferation incubated for 72 hrs by MTT assay; type: functional, cell-based; conditions: HepG2, 72 h
[27] = Toxicity in BALB/c nude mouse subcutaneously injected with human Huh-7 cells assessed as change in white blood cells at 10 mg/kg, ip administered once daily measured after 14 days; type: organism-based; conditions: in vivo, 336 h, time 14 day
Huh-7 [28] = assay: Induction of apoptosis in human Huh-7 cells assessed as early apoptotic cells at 80 nM measured after 24 hrs by Annexin-V-FITC/PI analysis (reference value: 1.04%); type: functional
[29] = Toxicity in BALB/c nude mouse subcutaneously injected with human Huh-7 cells assessed as changes in heart tissue at 10 mg/kg, ip administered once daily measured after 14 days by H and E staining based assay; type: organism-based; conditions: in vivo, 336 h, time 14 day
SK-HEP1 [30] = assay: Inhibition of cell migration in human SK-HEP1 cells at 40 nM measured for 24 hrs by scratch wound healing assay; type: functional, cell-based
SK-HEP1 [31] = assay: Induction of apoptosis in human SK-HEP1 cells assessed as early apoptotic cells at 40 nM measured after 24 hrs by Annexin-V-FITC/PI analysis (reference value: 1.45%); type: functional
SK-HEP1 [32] = assay: Induction of apoptosis in human SK-HEP1 cells assessed as necrotic cells at 40 nM measured after 24 hrs by Annexin-V-FITC/PI analysis (reference value: 0.70%); type: functional
Huh-7 [33] = assay: Induction of apoptosis in human Huh-7 cells assessed as late apoptotic cells at 40 nM measured after 24 hrs by Annexin-V-FITC/PI analysis (reference value: 1.23%); type: functional

Which results are given for `C[N+](C)(C)CCC(=O)Oc1ccc2[nH]c3c(c2c1)CCN1C(=O)c2cc(F)cc(F)c2N(c2cccc(F)c2)C31.[I-]` (stereo not given)?
half-life [1]: 3.15 h; inhibition (SK-HEP1 [2]): Active; Activity (Huh-7 [3]): 5.93%; solubility thermodynamic at 72 h [4]: 967 µg/mL; Activity (SK-HEP1 [5]): 1.31%; viability at 0.08 µM (Huh-7 [6]): 79.7%; Activity (Huh-7 [7]): 2.23%; Activity (SK-HEP1 [8]): 18.32%; Activity (SK-HEP1 [9]): 11.59%; Activity (Huh-7 [10]): Active; viability at 0.02 µM (SK-HEP1 [11]): 97.2%; Activity [12]: Non-Toxic; Activity (Huh-7 [13]): 0.73%; inhibition (SK-HEP1 [14]): Active; Activity (SK-HEP1 [15]): 47.61%; Activity (SK-HEP1 [16]): 24.99%; Activity (Huh-7 [17]): 66.98%; IC50 (SMMC-7721): 90 nM; Activity (SK-HEP1 [18]): 13.31%; Ratio [19]: 1.2; Activity (Huh-7 [20]): 0.04%; Activity (SK-HEP1 [21]): 1.15%; inhibition (SK-HEP1 [22]): Active; Activity [23]: Non-Toxic; remaining at 48 h [24]: 63.1%; Activity (SK-HEP1 [25]): 1.59%; Activity [26]: Non-Toxic; IC50 (HepG2): 90 nM; Activity [27]: Non-Toxic; Activity (Huh-7 [28]): 7.8%; Activity [29]: Non-Toxic; inhibition (SK-HEP1 [30]): Active; Activity (SK-HEP1 [31]): 5.11%; Activity (SK-HEP1 [32]): 0.49%; Activity (Huh-7 [33]): 2.89%
